In ChEMBL document CHEMBL5500372, “Novel natural osthole-inspired amphiphiles as membrane targeting antibacterials against methicillin-resistant Staphylococcus aureus (MRSA)” (Eur J Med Chem, 2024):
≈ marks a conversion by molar mass, not a printed value.

Tests used:
Staphylococcus aureus [1] = experiment: Antibacterial activity against methicillin-resistant Staphylococcus aureus clinical isolate 14 measured after 18 hrs by CLSI based broth microdilution method; assay type: functional
Staphylococcus aureus [2] = experiment: Antibacterial activity against methicillin-resistant Staphylococcus aureus clinical isolate 22 measured after 18 hrs by CLSI based broth microdilution method; assay type: functional
Escherichia coli = experiment: Antibacterial activity against Escherichia coli ATCC 25922 measured after 18 hrs by CLSI based broth microdilution method; assay type: functional
Staphylococcus aureus [3] = experiment: Antibacterial activity against methicillin-resistant Staphylococcus aureus clinical isolate 17 measured after 18 hrs by CLSI based broth microdilution method; assay type: functional
Staphylococcus aureus [4] = experiment: Antibacterial activity against methicillin-resistant Staphylococcus aureus clinical isolate 11 measured after 18 hrs by CLSI based broth microdilution method; assay type: functional
[5] = Selectivity index, ratio of HC50 for hemolytic activity in sheep erythrocyte assessed as hemolysis to MIC for antibacterial activity against Staphylococcus aureus ATCC 29213; assay type: toxicity; details: sheep erythrocytes, read-out: Selectivity Index
Staphylococcus aureus [6] = experiment: Antibacterial activity against methicillin-resistant Staphylococcus aureus clinical isolate 23 measured after 18 hrs by CLSI based broth microdilution method; assay type: functional
Staphylococcus aureus [7] = experiment: Antibacterial activity against methicillin-resistant Staphylococcus aureus clinical isolate 16 measured after 18 hrs by CLSI based broth microdilution method; assay type: functional
Staphylococcus aureus [8] = experiment: Antibacterial activity against Staphylococcus aureus ATCC 29213 measured after 18 hrs by CLSI based broth microdilution method; assay type: functional
[9] = Hemolytic activity in sheep erythrocyte assessed as hemolysis incubated for 1 hr by absorbance based analysis; assay type: toxicity, cell-based, Ovis aries; details: sheep erythrocytes
Staphylococcus aureus [10] = experiment: Antibacterial activity against methicillin-resistant Staphylococcus aureus clinical isolate 20 measured after 18 hrs by CLSI based broth microdilution method; assay type: functional
Staphylococcus aureus [11] = experiment: Antibacterial activity against methicillin-resistant Staphylococcus aureus clinical isolate 21 measured after 18 hrs by CLSI based broth microdilution method; assay type: functional
Staphylococcus aureus [12] = experiment: Antibacterial activity against methicillin-resistant Staphylococcus aureus clinical isolate 13 measured after 18 hrs by CLSI based broth microdilution method; assay type: functional
Staphylococcus aureus [13] = experiment: Antibacterial activity against methicillin-resistant Staphylococcus aureus clinical isolate 12 measured after 18 hrs by CLSI based broth microdilution method; assay type: functional

SMILES	MIC (Staphylococcus aureus [1])	MIC (Staphylococcus aureus [2])	MIC (Escherichia coli)	MIC (Staphylococcus aureus [3])	MIC (Staphylococcus aureus [4])	selectivity ratio [5]	MIC (Staphylococcus aureus [6])	MIC (Staphylococcus aureus [7])	MIC (Staphylococcus aureus [8])	HC50 at 1 h [9]	MIC (Staphylococcus aureus [10])	MIC (Staphylococcus aureus [11])	MIC (Staphylococcus aureus [12])	MIC (Staphylococcus aureus [13])
CCCN(CCC)C(=O)C[N+](C)(C)CCCCOc1ccc2ccc(=O)oc2c1CC=C(C)C.[Br-]	16 µg/mL	16 µg/mL	> 128 µg/mL	16 µg/mL	16 µg/mL	> 80	16 µg/mL	16 µg/mL	16 µg/mL	> 1280 µg/mL	32 µg/mL	16 µg/mL	32 µg/mL	32 µg/mL
CCCCN(CCCC)C(=O)C[N+](C)(C)CCCCCOc1ccc2ccc(=O)oc2c1CC=C(C)C.[Br-]	1 µg/mL	1 µg/mL	128 µg/mL	1 µg/mL	1 µg/mL	989	1 µg/mL	1 µg/mL	1 µg/mL	989 µg/mL	1 µg/mL	1 µg/mL	2 µg/mL	2 µg/mL
CCCCN(CCCC)C(=O)C[N+](C)(C)CCCOc1ccc2ccc(=O)oc2c1CC=C(C)C.[Br-]	4 µg/mL	4 µg/mL	128 µg/mL	8 µg/mL	4 µg/mL	272	4 µg/mL	4 µg/mL	4 µg/mL	1090 µg/mL	4 µg/mL	4 µg/mL	4 µg/mL	8 µg/mL
CCCCCNC(=O)C[N+](C)(C)CCCOc1ccc2ccc(=O)oc2c1CC=C(C)C.[Br-]	16 µg/mL	8 µg/mL	128 µg/mL	16 µg/mL	16 µg/mL	75.3	8 µg/mL	8 µg/mL	16 µg/mL	1200 µg/mL	8 µg/mL	8 µg/mL	16 µg/mL	16 µg/mL
CCCCCNC(=O)C[N+](C)(C)CCCCCOc1ccc2ccc(=O)oc2c1CC=C(C)C.[Br-]	2 µg/mL	2 µg/mL	64 µg/mL	4 µg/mL	4 µg/mL	> 320	2 µg/mL	2 µg/mL	4 µg/mL	> 1280 µg/mL	64 µg/mL	2 µg/mL	4 µg/mL	4 µg/mL
CCCN(CCC)C(=O)C[N+](C)(C)CCCOc1ccc2ccc(=O)oc2c1CC=C(C)C.[Br-]	16 µg/mL	32 µg/mL	128 µg/mL	16 µg/mL	32 µg/mL	> 40	32 µg/mL	32 µg/mL	32 µg/mL	> 1280 µg/mL	32 µg/mL	32 µg/mL	32 µg/mL	32 µg/mL
CCCCCCNC(=O)C[N+](C)(C)CCCCOc1ccc2ccc(=O)oc2c1CC=C(C)C.[Br-]	4 µg/mL	4 µg/mL	64 µg/mL	4 µg/mL	4 µg/mL	> 320	2 µg/mL	2 µg/mL	4 µg/mL	> 1280 µg/mL	4 µg/mL	4 µg/mL	4 µg/mL	8 µg/mL
CC(C)=CCc1c(OCCC[N+](C)(C)CC(=O)N(C(C)C)C(C)C)ccc2ccc(=O)oc12.[Br-]	16 µg/mL	16 µg/mL	128 µg/mL	16 µg/mL	16 µg/mL	> 40	16 µg/mL	16 µg/mL	16 µg/mL	> 640 µg/mL	32 µg/mL	16 µg/mL	16 µg/mL	16 µg/mL
CCCCNC(=O)C[N+](C)(C)CCCCOc1ccc2ccc(=O)oc2c1CC=C(C)C.[Br-]	16 µg/mL	16 µg/mL	128 µg/mL	16 µg/mL	16 µg/mL	> 40	16 µg/mL	16 µg/mL	32 µg/mL	> 1280 µg/mL	16 µg/mL	16 µg/mL	32 µg/mL	32 µg/mL
CCCCNC(=O)C[N+](C)(C)CCCOc1ccc2ccc(=O)oc2c1CC=C(C)C.[Br-]	32 µg/mL	32 µg/mL	128 µg/mL	32 µg/mL	64 µg/mL	> 40	32 µg/mL	32 µg/mL	32 µg/mL	> 1280 µg/mL	64 µg/mL	32 µg/mL	32 µg/mL	64 µg/mL
CCN(CC)C(=O)C[N+](C)(C)CCCCOc1ccc2ccc(=O)oc2c1CC=C(C)C.[Br-]	64 µg/mL	64 µg/mL	> 128 µg/mL	64 µg/mL	128 µg/mL	19	64 µg/mL	64 µg/mL	64 µg/mL	1220 µg/mL	64 µg/mL	64 µg/mL	128 µg/mL	128 µg/mL
CCCCN(CCCC)C(=O)C[N+](C)(C)CCCCOc1ccc2ccc(=O)oc2c1CC=C(C)C.[Br-]	4 µg/mL	2 µg/mL	64 µg/mL	4 µg/mL	4 µg/mL	> 640	4 µg/mL	2 µg/mL	2 µg/mL	> 1280 µg/mL	2 µg/mL	2 µg/mL	4 µg/mL	8 µg/mL
CCN(CC)C(=O)C[N+](C)(C)CCCCCOc1ccc2ccc(=O)oc2c1CC=C(C)C.[Br-]	32 µg/mL	32 µg/mL	128 µg/mL	32 µg/mL	32 µg/mL	40	32 µg/mL	32 µg/mL	32 µg/mL	> 1280 µg/mL	32 µg/mL	32 µg/mL	32 µg/mL	64 µg/mL
COc1ccc2ccc(=O)oc2c1CC=C(C)C [OSTHOLE]	64 µg/mL (≈ 262 µM)	64 µg/mL (≈ 262 µM)	> 64 µg/mL	64 µg/mL (≈ 262 µM)	> 64 µg/mL	–	> 64 µg/mL	64 µg/mL (≈ 262 µM)	> 64 µg/mL	> 80 µg/mL	64 µg/mL (≈ 262 µM)	> 64 µg/mL	> 64 µg/mL	64 µg/mL (≈ 262 µM)
C[C@@H](O)[C@H]1C(=O)N2C(C(=O)O)=C(S[C@@H]3CN[C@H](C(=O)N(C)C)C3)[C@H](C)[C@H]12 [MEROPENEM]	–	–	0.062 µg/mL (≈ 0.162 µM)	–	–	–	–	–	–	–	–	–	–	–
